Numbered stars: 1 amine (or outer) side, 2 acyl side, 3 side chain; on linkers, the order of the positions; unused ones are H or OH. Bridge positions count the residues as written; N and C are the ends. Peptide text beside a SMILES is read from it. I, II: the chains in the order shown. X1 = C[Si](C)(O[*:1])O[*:2]
What was measured:
[1] = tested on: Osteosarkom bzw. Adenokarzinome; test: Effect in mice on osteosarcoma or adenocarcinoma; design: species or system Mäuse; conditions: in vivo
[2] = tested on: Medulloblastom-Zellen; test: Inhibition of cell multiplication; type: cell-based
[3] = tested on: Zellen des Basatzellkarzinoms; test: Inhibition of cell multiplication; type: cell-based
[4] = tested on: Medulloblastome; test: Effect on medulloblastomas
[5] = tested on: Entero-Viren; test: Antiviral effect; conditions: in particular as vesicles holding antisense constructs
[6] = tested on: Adenokarzinome; test: Effect on adenocarcinomas

| Structure (SMILES) | Wirkung auf Mäuse, Osteosarkom bzw. Adenokarzinome [1] | Vermehrung von Medulloblastom-Zellen [2] | Vermehrung von Zellen des Basatzellkarzinoms [3] | Wirkung auf Adenokarzinome [6] | other results |
| --- | --- | --- | --- | --- | --- |
| C[C@H](N)C(=O)N[C@@H](C)C(=O)N[C@@H](C)C(=O)N[C@@H](C)C(=O)O[Si](C)(C)OC(=O)[C@H](C)NC(=O)[C@H](C)NC(=O)[C@H](C)NC(=O)[C@H](C)N [Dimethyl bis(tetraalanyl)silylester] | zeigen eine Wirkung | inhibieren | inhibieren | – | – |
| C[Si](C)(OC(=O)CNC(=O)CNC(=O)CN)OC(=O)CNC(=O)CNC(=O)CN [Dimethyl bis(triglycyl)silylester] | – | – | – | – | Wirkung gegen Medulloblastome [4]: zeigen eine Wirkung; Wirkung gegen Entero-Viren [5]: zeigen eine Wirkung |
| C[C@H](N)C(=O)N[C@@H](C)C(=O)N[C@@H](C)C(=O)N[C@@H](C)C(=O)N[C@@H](C)C(=O)N[C@@H](C)C(=O)N[C@@H](C)C(=O)N[C@@H](C)C(=O)O[Si](C)(C)OC(=O)[C@H](C)NC(=O)[C@H](C)NC(=O)[C@H](C)NC(=O)[C@H](C)NC(=O)[C@H](C)NC(=O)[C@H](C)NC(=O)[C@H](C)NC(=O)[C@H](C)N [Dimethyl bis(octaalanyl)silylester] (I: H-AAAAAAAA / II: H-AAAAAAAA; linker I:C-II:C via X1) | zeigen eine Wirkung | inhibieren | inhibieren | – | – |
| CC(C)[C@H](N)C(=O)N[C@H](C(=O)N[C@H](C(=O)O[Si](C)(C)OC(=O)[C@@H](NC(=O)[C@@H](NC(=O)[C@@H](N)C(C)C)C(C)C)C(C)C)C(C)C)C(C)C [Dimethyl bis(trivalyl)silylester] | – | – | – | zeigen eine Wirkung | – |
| C[C@H](N)C(=O)N[C@@H](C)C(=O)N[C@@H](C)C(=O)O[Si](C)(C)OC(=O)[C@H](C)NC(=O)[C@H](C)NC(=O)[C@H](C)N [Dimethyl bis(trialanyl)sillylester] | zeigen eine Wirkung | inhibieren | inhibieren | – | – |
| C[Si](C)(OC(=O)CNC(=O)CNC(=O)CNC(=O)CN)OC(=O)CNC(=O)CNC(=O)CNC(=O)CN [Dimethyl bis(tetraglycyl)silylester] | – | – | – | – | Wirkung gegen Medulloblastome [4]: zeigen eine Wirkung; Wirkung gegen Entero-Viren [5]: zeigen eine Wirkung |
| C[C@H](N)C(=O)N[C@@H](C)C(=O)N[C@@H](C)C(=O)N[C@@H](C)C(=O)N[C@@H](C)C(=O)O[Si](C)(C)OC(=O)[C@H](C)NC(=O)[C@H](C)NC(=O)[C@H](C)NC(=O)[C@H](C)NC(=O)[C@H](C)N [Dimethyl bis(pentaalanyl)silylester] | zeigen eine Wirkung | inhibieren | inhibieren | – | – |
| CC(C)[C@H](N)C(=O)N[C@H](C(=O)N[C@H](C(=O)N[C@H](C(=O)O[Si](C)(C)OC(=O)[C@@H](NC(=O)[C@@H](NC(=O)[C@@H](NC(=O)[C@@H](N)C(C)C)C(C)C)C(C)C)C(C)C)C(C)C)C(C)C)C(C)C [Dimethyl bis(tetravalyl)silylester] | – | – | – | zeigen eine Wirkung | – |
| CC(C)[C@H](N)C(=O)N[C@H](C(=O)N[C@H](C(=O)N[C@H](C(=O)N[C@H](C(=O)N[C@H](C(=O)N[C@H](C(=O)N[C@H](C(=O)O[Si](C)(C)OC(=O)[C@@H](NC(=O)[C@@H](NC(=O)[C@@H](NC(=O)[C@@H](NC(=O)[C@@H](NC(=O)[C@@H](NC(=O)[C@@H](NC(=O)[C@@H](N)C(C)C)C(C)C)C(C)C)C(C)C)C(C)C)C(C)C)C(C)C)C(C)C)C(C)C)C(C)C)C(C)C)C(C)C)C(C)C)C(C)C)C(C)C [Dimethyl bis(octavalyl)silylester] (I: H-VVVVVVVV / II: H-VVVVVVVV; linker I:C-II:C via X1) | – | – | – | zeigen eine Wirkung | – |
| CC(C)[C@H](N)C(=O)N[C@H](C(=O)N[C@H](C(=O)N[C@H](C(=O)N[C@H](C(=O)O[Si](C)(C)OC(=O)[C@@H](NC(=O)[C@@H](NC(=O)[C@@H](NC(=O)[C@@H](NC(=O)[C@@H](N)C(C)C)C(C)C)C(C)C)C(C)C)C(C)C)C(C)C)C(C)C)C(C)C)C(C)C [Dimethyl bis(pentavalyl)silylester] | – | – | – | zeigen eine Wirkung | – |

Reference: patent EP1948196B1, “USE OF TETRAORGANOSILICON COMPOUNDS” (Salama, Zoser B., priority 2005, dated 2007)
